Measured values published in patent publication US11358971B2, “Prodrugs of modulators of the NMDA receptor” (H. Lundbeck A/S, priority 2019, dated 2022).
Entries after “also recorded” stand apart in the source; their conditions may differ.

How the values were obtained:
[1] = test system: tonic hind limb extensor seizure; experiment: Maximal Electro Shock Threshold (MEST); assay type: in vivo; conditions: 3, 10 and 30 mg/kg subcutaneously, 30 min before test; vs vehicle 10% HPβCD; rats
Text: Naïve rats were acclimatised to the procedure room in their home cages, with food and water available ad libitum. All rats were weighed at the beginning of the study and randomly assigned to treatment groups. […] Rats were individually assessed for the production of a tonic hind limb extensor seizure using a Hugo Sachs Electronik stimulator, which delivered an adjustable constant current (1-300 mA) of 0.3 seconds duration via corneal electrodes. The stimulus intensity was varied, from a typical baseline of 25 mA, by an ‘up and down’ method of shock titration. […] This procedure continued for all rats within a treatment group. […] Significant differences between drug-treated animals and vehicle were assessed according to Litchfield and Wilcoxon (Litchfield J, Wilcoxon F. A simplified method for evaluating dose-effect experiments. J Pharmacol Exp Ther. 1949; 96(1): 99-113).

time of immobility = experiment: Forced swim test; assay type: in vivo; conditions: 3, 10 and 30 mg/kg subcutaneously, 24 h before test; vs vehicle; Wistar Kyoto rats
Protocol: Adult male Wistar Kyoto rats from Envigo (former Harlan; Blackthorn, UK). Animals are maintained under controlled conditions (21±1° C., 37±1%, 12/12 h light/dark cycles, lights on at 8 a.m.) with food and water available ad libitum. In all studies WKY rats were randomly allocated to a maximum of 5 treatment groups (n=20 per group). […] The dosing of the animals were performed by subcutaneous injection 24 h before test g. The WKY rats were individually placed into a glass cylinder (50 cm height, 20 cm diameter) containing 30 cm of water at 25±1° C. for a 5 min test phase. The test session recorded (using a video camera placed above the cylinder for subsequent behavioural analysis) the time of immobility (s). One-way analysis of variance (ANOVA) was used to detect statistical significance in the FST data. The Fisher least significant difference (LSD) test was used for post hoc analyses. Probability values of P<0.05 were considered as statistically significant. Statistical analyses were performed using SPSS.

[2] = test system: high frequency oscillation; experiment: Resting state Electroencephalography (rsEEG); assay type: in vivo; conditions: 20 mg/kg subcutaneously in 10% HPβCD; 30-40 min after dosing; vs vehicle; rats
Protocol: On the day of surgery, rats (270-300 g) were anesthetized with a 0.25 ml/100 g subcutaneous (SC) injection of 1:1 hypnorm/Dormicum and mounted in a stereotaxic frame (David Kopf Instruments, Tujunga, Calif., USA) with blunt ear bars. Marcain (0.2 ml SC) was injected under the scalp, and gel (Neutral Opthta Eye Gel) put on the eyes to prevent the mucous membrane drying out. Holes were burred in the skull to allow for placement of two depth electrodes (E363-series; PlasticsOne, Roanoke, Va., USA) in left and right pre/infralimbic PFC (AP: 3.0 mm from the bregma suture, Medial-Lateral (ML): +/−0.7 mm from the sagittal suture and DV: 3.0 mm from the dura) and thalamus (AP: −2.8 mm from the bregma suture, ML: +0.7 mm from the sagittal suture and DV: 4.4 mm from the dura) and three screw electrodes at vertex (AP: −2 mm from the bregma suture, ML: +2.0 mm from the sagittal suture), a reference electrode (AP: +8.0 mm and ML: −2.0 mm), and a ground electrode (AP: −5 mm, ML: +5 mm). […] Animal bodyweights were recorded daily. […]
The development of the locomotive state-detection algorithm and the state-specific pharmaco-EEG analyses were carried out in MATLAB R2017a (The MathWorks, Inc., Natick, Mass., USA) using functions from the sigTOOL toolbox. Significant differences between drug-treated animals and vehicle were assessed according to Turkey's honest significant difference.

[3] = target: NR1s1s2 (ligand binding domains of the NMDA receptor), glycine site; conditions: radioligand parameter stated in assay method; obtained from Sigma Aldrich; cited from earlier work

## COC(=O)[C@H](N)CNC(=O)c1cc2nccc(C)c2s1 [Compound 2c, Methyl (R)-2-amino-3-(7-methylthieno[3,2-b]pyridine-2-carboxamido)propanoate]
[1]
  effects on the maximal electro shock threshold (seizure threshold CC50 current): dose dependent effects
Time of immobility
  time of immobility in forced swim test: significant effects in time of immobility at the 30 mg/kg dose
[2]
  effects in resting state Electroencephalography (high frequency oscillation, baseline-normalized power): significant effects in high frequency oscillation; also recorded: significant effects in resting state Electroencephalography

## O=C(O)C(=Cc1c(C(=O)O)[nH]c2cc(Cl)cc(Cl)c12)c1ccccc1 [[3H]-MDL-105,519]
[3]
  Kd: 1.3 nM
